“Also recorded” adds a separate entry of the source.
Legend:
α2c adrenoreceptor = target: T1, α2c adrenoreceptor (Homo sapiens, UniProt P18825); assay: [35S]-GTPγS binding exchange, α2c CHO cell membranes; assay type: biochemical; settings: for stimulation of [35S]-GTPγS binding, α2c (in words): CHO cell membranes
T1 construct: expressed in transfected cells; host or cells: CHO (Chinese hamster ovary) cells, membranes
T1 sequence (P18825 1-462): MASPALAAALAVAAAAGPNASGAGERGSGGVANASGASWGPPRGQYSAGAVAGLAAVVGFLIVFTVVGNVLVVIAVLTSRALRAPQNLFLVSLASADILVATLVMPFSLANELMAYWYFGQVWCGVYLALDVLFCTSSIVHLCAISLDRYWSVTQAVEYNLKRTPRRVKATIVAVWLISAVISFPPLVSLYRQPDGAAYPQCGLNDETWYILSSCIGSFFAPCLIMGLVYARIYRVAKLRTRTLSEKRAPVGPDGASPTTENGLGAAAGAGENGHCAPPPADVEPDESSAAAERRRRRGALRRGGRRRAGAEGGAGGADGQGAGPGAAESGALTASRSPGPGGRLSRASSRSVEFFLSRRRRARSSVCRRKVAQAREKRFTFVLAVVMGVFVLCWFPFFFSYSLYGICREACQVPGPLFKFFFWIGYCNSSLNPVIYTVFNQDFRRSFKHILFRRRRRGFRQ
Protocol: (§1) The affinity and activity of phenylephrine metabolites were evaluated in human recombinant α1 and α2 adrenoreceptor binding and activity assays. […] Affinity of the metabolites was determined by receptor binding assays. Functional activity of the metabolites was assessed using an [^35S]-GTPγS binding exchange assay for the α2 receptor subtypes and a cell-based calcium flux response for the α1 receptor subtypes.
(§2) Assay buffer was 75 mM Tris-HCl pH 7.4, 12.5 mM MgCl2, 2 mM EDTA and 1 μM GDP. Plates were counted on a Packard TopCount. The percent increase over basal binding of [^35S]-GTPγS, a measure of efficacy, was calculated as follows: 100×[[mean total sample cpm−basal cpm]÷by basal cpm]. Basal cpm was defined as the mean cpm in the absence of agonist compound minus the mean non-specific binding cpm.
(§3) Each metabolite was evaluated in each assay in at least 2 independent experiments and a representative assay of each metabolite/assay combination is shown.

α2b adrenoreceptor [1] = target: T2, α2b adrenoreceptor (Homo sapiens, UniProt P18089); assay: Competition binding, [3H]-UK14304, α2b CHO cell membranes; settings: for inhibition of [3H]-UK14304 binding, α2b (in words): CHO cell membranes
T2 construct: expressed in transfected cells; host or cells: CHO (Chinese hamster ovary) cells, membranes
T2 sequence (P18089 1-450): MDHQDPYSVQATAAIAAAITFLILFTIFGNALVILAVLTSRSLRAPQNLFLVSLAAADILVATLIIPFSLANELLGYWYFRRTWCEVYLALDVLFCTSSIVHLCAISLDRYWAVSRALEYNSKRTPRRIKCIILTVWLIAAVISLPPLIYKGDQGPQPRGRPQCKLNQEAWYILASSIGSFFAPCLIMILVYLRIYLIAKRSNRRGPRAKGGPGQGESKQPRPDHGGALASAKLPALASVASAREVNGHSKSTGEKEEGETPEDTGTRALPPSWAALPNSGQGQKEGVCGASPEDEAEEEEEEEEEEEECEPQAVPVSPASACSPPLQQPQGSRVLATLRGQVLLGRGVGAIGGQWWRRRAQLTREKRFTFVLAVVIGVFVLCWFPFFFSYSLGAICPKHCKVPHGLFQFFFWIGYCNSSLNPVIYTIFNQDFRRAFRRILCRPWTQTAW
Protocol: as §1
(§4) Competition Binding Assays
(§5) Competition binding assays for the α2 adrenoreceptors were performed using 20 μg membrane protein per well in binding buffer (75 mM Tris-HCl pH 7.4, 12.5 mM MgCl2, […] EDTA, 0.2% bovine serum albumin). […] Binding was terminated by rapid filtration through GF/C unifilter plates, presoaked with 0.3% polyethylenimine, with five washes with 0.5 ml cold 50 mM Tris-HCl ph 7.4, using a Packard Filtermate Harvester. After drying, bound radioactivity was determined by liquid scintillation counting (Packard TopCount) with Microscint 20, 50 μl/well. Binding data were analyzed using GraphPad Prism.
as §3

α1b adrenoreceptor [2] = target: T3, α1b adrenoreceptor (Homo sapiens, UniProt P35368); assay: Cellular calcium flux (FLIPR), α1b expressing CHO cells; assay type: cell-based; settings: for increase in intracellular calcium, α1b calcium assay (in words): α1b expressing CHO cells
T3 construct: expressed in transfected cells
T3 sequence (P35368 1-520): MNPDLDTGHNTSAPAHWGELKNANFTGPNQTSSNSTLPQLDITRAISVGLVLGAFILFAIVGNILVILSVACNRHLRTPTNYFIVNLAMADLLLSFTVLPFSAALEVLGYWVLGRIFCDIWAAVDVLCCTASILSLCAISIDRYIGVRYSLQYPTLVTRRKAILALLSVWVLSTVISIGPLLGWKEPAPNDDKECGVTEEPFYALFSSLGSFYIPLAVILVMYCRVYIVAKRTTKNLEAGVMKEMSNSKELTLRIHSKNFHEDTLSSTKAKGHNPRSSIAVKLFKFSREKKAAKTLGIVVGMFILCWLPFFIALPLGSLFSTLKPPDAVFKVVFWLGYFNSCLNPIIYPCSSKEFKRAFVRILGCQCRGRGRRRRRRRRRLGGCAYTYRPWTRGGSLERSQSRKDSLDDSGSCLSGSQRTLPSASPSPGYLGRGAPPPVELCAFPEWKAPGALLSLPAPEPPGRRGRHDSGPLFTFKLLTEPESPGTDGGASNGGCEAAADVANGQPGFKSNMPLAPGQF
Protocol: as §1
Intracellular calcium levels were measured using a fluorometric imaging plate reader (FLIPR). Cells expressing α1 adrenoreceptors were cultured overnight at 15,000 cells/well in 96 well black-wall clear bottom plates (Packard). Adherent cells were loaded for 1 hour at 37° C. using the FLIPR Calcium Plus Assay Kit (Molecular Probes, Eugene, Oreg.), which included 2.5 mM probenecid (Sigma). Compounds (at 10 mM in 100% DMSO) were diluted in diluting buffer (HBSS, 20 mM HEPES, 2.5 mM probenecid, 0.5% BSA, pH 7.4). A titration of norepinephrine was included in every experiment and norepinephrine (at 1 μM) was also used as a plate standard on each assay plate. Cells were maintained at 37° C. throughout all calcium measurements. Fluorescence data was collected at 1 second interval for 60 seconds, followed by collection at 2 second intervals for 30 seconds. Background fluorescence was quantitated in wells containing cells with no additions and was subtracted from all experimental samples. All conditions were done in quadruplicate. Non-linear regression analysis using GraphPad Prism was used to calculate EC50 values.
as §3

α1b adrenoreceptor [3] = target: T3, α1b adrenoreceptor; assay: Competition binding, [3H]-prazosin, α1b CHO cell membranes
Protocol: as §1, §4, §5, §3

α2b adrenoreceptor [4] = target: T2, α2b adrenoreceptor; assay: [35S]-GTPγS binding exchange, α2b CHO cell membranes; assay type: biochemical; settings: for stimulation of [35S]-GTPγS binding, α2b (in words): CHO cell membranes
Protocol: as §1, §2, §3

[5] = highest concentration evaluated (10 μM)
[6] = listed as PE glucuronide batch 4

O=C(O)C(O)c1cccc(O)c1 (stereo not shown) [3-hydroxymandelic acid]
stimulation of [35S]-GTPγS binding, α2c (in words) (α2c adrenoreceptor): no activity
agonist activity, α2c [35S]-GTPγS assay (in words) (α2c adrenoreceptor; [5]): no activity
EC50 (α2c adrenoreceptor; read-out: EC50, a2c GTPγS (class symbol)): > 10 µM
inhibition of [3H]-UK14304 binding, α2b (in words) (α2b adrenoreceptor [1]): no significant binding
Ki (α2b adrenoreceptor [1]; [3H]-UK14304, read-out: Ki, a2b Binding (class symbol)): > 100 µM
binding / affinity, α2b receptor (in words) (α2b adrenoreceptor [1]; at 100 μM (highest concentration evaluated)): no affinity
agonist activity, α1b calcium assay (in words) (α1b adrenoreceptor [2]; [5]): no activity
increase in intracellular calcium, α1b calcium assay (in words) (α1b adrenoreceptor [2]): not active
EC50 (α1b adrenoreceptor [2]; α1b-expressing CHO cells, read-out: EC50, a1b Calcium (class symbol)): > 10 µM
Ki (α1b adrenoreceptor [3]; [3H]-prazosin, read-out: Ki, a1b Binding (class symbol)): > 100 µM
binding / affinity, α1b receptor (in words) (α1b adrenoreceptor [3]; concentrations up to 100 μM): No appreciable binding; also recorded: no affinity
stimulation of [35S]-GTPγS binding, α2b (in words) (α2b adrenoreceptor [4]): no activity
agonist activity, α2b [35S]-GTPγS assay (in words) (α2b adrenoreceptor [4]; [5]): no activity
EC50 (α2b adrenoreceptor [4]; read-out: EC50, a2b GTPγS (class symbol)): > 10 µM

CNC[C@H](O)c1cccc(O[C@@H]2O[C@H](C(=O)O)[C@@H](O)[C@H](O)[C@H]2O)c1 [PE glucuronide, (R)-PE glucuronide]
stimulation of [35S]-GTPγS binding, α2c (in words) (α2c adrenoreceptor): nor did it activate binding; also recorded: pharmacologically inactive
stimulation of [35S]-GTPγS binding, α2c (in words) (α2c adrenoreceptor; listed as PE glucuronide b2): No stimulatory activity
inhibition of [3H]-UK14304 binding, α2b (in words) (α2b adrenoreceptor [1]): weakly inhibits binding; also recorded: pharmacologically inactive
inhibition of [3H]-UK14304 binding, α2b (in words) (α2b adrenoreceptor [1]; listed as PE glucuronide b4): A small amount of binding
inhibition of [3H]-UK14304 binding, α2b (in words) (α2b adrenoreceptor [1]; [6]): minimal activity
fold less potent than PE in inducing a calcium increase, α1b cells (α1b adrenoreceptor [2]; batch b4, approximately 0.28% PE): 300-450 fold
increase in intracellular calcium, α1b calcium assay (in words) (α1b adrenoreceptor [2]): consistent with level of contaminating phenylephrine; also recorded: pharmacologically inactive
increase in intracellular calcium, α1b calcium assay (in words) (α1b adrenoreceptor [2]; [6]): minimal activity
inhibition of 3H-prazosin binding, α1b (in words) (α1b adrenoreceptor [3]; CHO cell membranes): No appreciable binding; also recorded: no binding affinity; also recorded: pharmacologically inactive
stimulation of [35S]-GTPγS binding, α2b (in words) (α2b adrenoreceptor [4]): pharmacologically inactive
stimulation of [35S]-GTPγS binding, α2b (in words) (α2b adrenoreceptor [4]; listed as PE glucuronide b2): No stimulatory activity

Source: patent US20090280160A1, “PHENYLEPHRINE PHARMACEUTICAL FORMULATIONS AND COMPOSITIONS FOR TRANSMUCOSAL ABSORPTION” (Schering-Plough Healthcare Products, Inc., priority 2007, published 2009)
